Test results reported in ChEMBL document CHEMBL1122265, “Nitrogen bridgehead compounds. 33. New antiallergic 4H-pyrido[1,2-a]pyrimidin-4-ones. 2” (1983).
Calls of active or inactive are those of the source. No cut-off for these calls is given here.

Assays:
Rattus norvegicus [1] = test: Antiallergic activity in rat reaginic passive cutaneous anaphylaxis (PCA) test upon peroral administration; assay type: functional; settings: po, read-out: ID50 (the source's name)
Rattus norvegicus [2] = test: Antiallergic activity in rat reaginic passive cutaneous anaphylaxis (PCA) test upon intravenous administration; assay type: functional; settings: read-out: ID50 (the source's name)
Rattus norvegicus [3] = test: Antiallergic activity in rat reaginic passive cutaneous anaphylaxis (PCA) test upon peroral administration; NA means inactive; assay type: functional, organism-based
Rattus norvegicus [4] = test: Antiallergic activity in rat reaginic passive cutaneous anaphylaxis (PCA) test upon intravenous administration; Insoluble; assay type: functional, organism-based

Cc1c(NN=C2CCC(C)n3c2ncc(C(=O)O)c3=O)c(=O)n(-c2ccccc2)n1C (centres undefined)
ED50 (Rattus norvegicus [1]): > 100 µmol/kg | ED50 (Rattus norvegicus [2]): 31 µmol/kg

O=C(O)c1cc(=O)c2c(OCC(O)COc3cccc4oc(C(=O)O)cc(=O)c34)cccc2o1 [CROMOLYN SODIUM]
ED50 (Rattus norvegicus [2]): 1 µmol/kg | ID50 (Rattus norvegicus [3]): inactive

Cc1nc2n(c(=O)c1C(=O)O)C(C)CCC2=NNc1ccccc1 (centres undefined)
ED50 (Rattus norvegicus [1]): > 320 µmol/kg | ED50 (Rattus norvegicus [2]): > 100 µmol/kg

CC1CCC(=NNc2cccc3ccccc23)c2ncc(C(=O)O)c(=O)n21 (centres undefined)
ED50 (Rattus norvegicus [1]): > 320 µmol/kg | ID50 (Rattus norvegicus [4]): Insoluble

Cc1nc2n(c(=O)c1C(N)=O)C(C)CCC2=NNc1ccccc1 (centres undefined)
ED50 (Rattus norvegicus [1]): > 100 µmol/kg | ID50 (Rattus norvegicus [4]): Insoluble

COc1cc(OC)c(NN=C2CCC(C)n3c2ncc(C(=O)O)c3=O)cc1Cl (centres undefined)
ED50 (Rattus norvegicus [1]): > 100 µmol/kg | ID50 (Rattus norvegicus [4]): Insoluble

CC1CCC(=NNc2cc([N+](=O)[O-])cc([N+](=O)[O-])c2)c2ncc(C(=O)O)c(=O)n21 (centres undefined)
ED50 (Rattus norvegicus [1]): > 100 µmol/kg | ED50 (Rattus norvegicus [2]): 3.4 µmol/kg

CC1CCC(=NNc2ccccn2)c2ncc(C(=O)O)c(=O)n21 (centres undefined)
ED50 (Rattus norvegicus [1]): > 100 µmol/kg | ED50 (Rattus norvegicus [2]): 3.2 µmol/kg

CC1CCC(=NNc2ccc(Cl)cc2Cl)c2ncc(C(=O)O)c(=O)n21 (centres undefined)
ED50 (Rattus norvegicus [1]): > 100 µmol/kg | ID50 (Rattus norvegicus [4]): Insoluble

CC1CCC(=NNc2ccc(Cl)c(Cl)c2)c2ncc(C(=O)O)c(=O)n21 (centres undefined)
ED50 (Rattus norvegicus [1]): > 100 µmol/kg | ED50 (Rattus norvegicus [2]): 0.89 µmol/kg

Cc1cccc(Cl)c1NN=C1CCC(C)n2c1ncc(C(=O)O)c2=O (centres undefined)
ED50 (Rattus norvegicus [1]): > 100 µmol/kg | ID50 (Rattus norvegicus [4]): Insoluble

CC1CCC(=NN(C)c2ccccc2)c2ncc(C(=O)O)c(=O)n21 (centres undefined)
ED50 (Rattus norvegicus [1]): > 100 µmol/kg | ED50 (Rattus norvegicus [2]): 52.4 µmol/kg

CC1CCC(=NNc2ccccc2)c2ncc(C(=O)NO)c(=O)n21 (centres undefined)
ED50 (Rattus norvegicus [1]): > 100 µmol/kg | ED50 (Rattus norvegicus [2]): > 100 µmol/kg

CC1CCC(N=Nc2ccccc2C(=O)O)=C2N(C)C=C(C(=O)O)C(=O)N21 (centres undefined)
ED50 (Rattus norvegicus [1]): > 100 µmol/kg | ED50 (Rattus norvegicus [2]): > 100 µmol/kg

CC1CCC(N=Nc2ccccc2)=C2N(C)C=C(C(=O)O)C(=O)N21 (centres undefined)
ED50 (Rattus norvegicus [1]): > 100 µmol/kg | ID50 (Rattus norvegicus [4]): Insoluble

CC1CC/C(=N\N)c2ncc(C(=O)O)c(=O)n21 (centres undefined)
ED50 (Rattus norvegicus [1]): > 100 µmol/kg | ED50 (Rattus norvegicus [2]): 42 µmol/kg

CC1CCC(=NNc2c(Cl)cccc2Cl)c2ncc(C(=O)O)c(=O)n21 (centres undefined)
ED50 (Rattus norvegicus [1]): > 100 µmol/kg | ID50 (Rattus norvegicus [4]): Insoluble

COc1cc(NN=C2CCC(C)n3c2ncc(C(=O)O)c3=O)cc(OC)c1 (centres undefined)
ED50 (Rattus norvegicus [1]): 100 µmol/kg | ED50 (Rattus norvegicus [2]): 0.42 µmol/kg

CCc1nc2n(c(=O)c1C(N)=O)C(C)CCC2=NNc1ccccc1 (centres undefined)
ED50 (Rattus norvegicus [1]): > 100 µmol/kg | ID50 (Rattus norvegicus [4]): Insoluble

CC1CCC(=NNc2cc(Cl)ccc2O)c2ncc(C(=O)O)c(=O)n21 (centres undefined)
ED50 (Rattus norvegicus [1]): > 100 µmol/kg | ID50 (Rattus norvegicus [4]): Insoluble

CC1CCC(=NNc2ccc(Br)cc2Cl)c2ncc(C(=O)O)c(=O)n21 (centres undefined)
ED50 (Rattus norvegicus [1]): > 100 µmol/kg | ID50 (Rattus norvegicus [4]): Insoluble

Cc1cc(C)cc(NN=C2CCC(C)n3c2ncc(C(=O)O)c3=O)c1 (centres undefined)
ED50 (Rattus norvegicus [1]): > 320 µmol/kg | ID50 (Rattus norvegicus [4]): Insoluble

Cc1cc(C)c(NN=C2CCC(C)n3c2ncc(C(=O)O)c3=O)c(C)c1 (centres undefined)
ED50 (Rattus norvegicus [1]): 320 µmol/kg | ID50 (Rattus norvegicus [4]): Insoluble

CNN=C1CCC(C)n2c1ncc(C(=O)O)c2=O (centres undefined)
ED50 (Rattus norvegicus [1]): > 100 µmol/kg | ED50 (Rattus norvegicus [2]): 17.5 µmol/kg

CC1CCC(=NNc2ccccc2C(=O)O)c2ncc(C(=O)NO)c(=O)n21 (centres undefined)
ED50 (Rattus norvegicus [1]): > 100 µmol/kg | ED50 (Rattus norvegicus [2]): > 100 µmol/kg

CC1CCC(=NNc2ccc3ccccc3c2)c2ncc(C(=O)O)c(=O)n21 (centres undefined)
ED50 (Rattus norvegicus [1]): > 100 µmol/kg | ED50 (Rattus norvegicus [2]): 0.77 µmol/kg

CC1CCC(=NNc2ccccc2C(=O)O)c2ncc(C(=O)O)c(=O)n21 (centres undefined)
ED50 (Rattus norvegicus [1]): > 100 µmol/kg | ED50 (Rattus norvegicus [2]): 0.48 µmol/kg

CC1CCC(=NNc2ccc3c(c2)OCO3)c2ncc(C(=O)O)c(=O)n21 (centres undefined)
ED50 (Rattus norvegicus [1]): > 100 µmol/kg | ED50 (Rattus norvegicus [2]): 0.33 µmol/kg

CC1CCC(=NNc2cc(C(F)(F)F)cc(C(F)(F)F)c2)c2ncc(C(=O)O)c(=O)n21 (centres undefined)
ED50 (Rattus norvegicus [1]): > 100 µmol/kg | ID50 (Rattus norvegicus [4]): Insoluble

Cc1cc(NN=C2CCC(C)n3c2ncc(C(=O)O)c3=O)ccc1Br (centres undefined)
ED50 (Rattus norvegicus [1]): > 100 µmol/kg | ID50 (Rattus norvegicus [4]): Insoluble

CC1CCC(=NNc2cccnc2)c2ncc(C(=O)O)c(=O)n21 (centres undefined)
ED50 (Rattus norvegicus [1]): > 320 µmol/kg | ED50 (Rattus norvegicus [2]): 0.54 µmol/kg

CCOC(=O)c1cnc2n(c1=O)C(C)CCC2=NNc1c(C)n(C)n(-c2ccccc2)c1=O (centres undefined)
ED50 (Rattus norvegicus [1]): > 100 µmol/kg | ED50 (Rattus norvegicus [2]): 95 µmol/kg

Cc1cccc(NN=C2CCC(C)n3c2ncc(C(=O)O)c3=O)c1C (centres undefined)
ED50 (Rattus norvegicus [1]): > 100 µmol/kg | ID50 (Rattus norvegicus [4]): Insoluble

Cc1ccc(NN=C2CCC(C)n3c2ncc(C(=O)O)c3=O)cc1C (centres undefined)
ED50 (Rattus norvegicus [1]): > 100 µmol/kg | ED50 (Rattus norvegicus [2]): 6.5 µmol/kg

CC1CCC(C)(N=Nc2ccccc2)c2ncc(C(=O)O)c(=O)n21 (centres undefined)
ED50 (Rattus norvegicus [1]): > 100 µmol/kg | ED50 (Rattus norvegicus [2]): 35 µmol/kg

CC1CCC(=NNc2ccccc2)c2ncc(C(=O)O)c(=O)n21 (centres undefined)
ED50 (Rattus norvegicus [1]): 1.2 µmol/kg | ED50 (Rattus norvegicus [2]): 0.6 µmol/kg

CC1CCC(=NNc2cc(Cl)cc(Cl)c2)c2ncc(C(=O)O)c(=O)n21 (centres undefined)
ED50 (Rattus norvegicus [1]): > 100 µmol/kg | ED50 (Rattus norvegicus [2]): 13.3 µmol/kg

CC1CCC(C)(N=Nc2ccccc2C(=O)O)c2ncc(C(=O)O)c(=O)n21 (centres undefined)
ED50 (Rattus norvegicus [1]): > 100 µmol/kg | ED50 (Rattus norvegicus [2]): > 100 µmol/kg

CC1CCC(=NNc2nn[nH]n2)c2ncc(C(=O)O)c(=O)n21 (centres undefined)
ED50 (Rattus norvegicus [1]): > 100 µmol/kg | ED50 (Rattus norvegicus [2]): > 100 µmol/kg

Cc1cccc(C)c1NN=C1CCC(C)n2c1ncc(C(=O)O)c2=O (centres undefined)
ED50 (Rattus norvegicus [1]): 320 µmol/kg | ID50 (Rattus norvegicus [4]): Insoluble

Cc1cc(C)c(NN=C2CCC(C)n3c2ncc(C(=O)O)c3=O)cc1C (centres undefined)
ED50 (Rattus norvegicus [1]): 320 µmol/kg | ID50 (Rattus norvegicus [4]): Insoluble

CCc1nc2n(c(=O)c1C(=O)O)C(C)CCC2=NNc1ccccc1 (centres undefined)
ED50 (Rattus norvegicus [1]): > 320 µmol/kg | ED50 (Rattus norvegicus [2]): > 100 µmol/kg
